# pEC50: −log10 of the molar value. Bridge positions count the residues as written; N and C are the ends. Square brackets hold non-standard residues; d marks the D form. Peptide text beside a SMILES is read from it. R8 = C=CCCCCCC[C@@](C)(N)C(=O)O; S8 = C=CCCCCCC[C@](C)(N)C(=O)O; R5 = C=CCCC[C@@](C)(N)C(=O)O; S5 = C=CCCC[C@](C)(N)C(=O)O
# Key:
# [1] = Half life of the compound in presence of chymotrypsin at 20 uM by HPLC analysis; assay type: physicochemical
# [2] = Inhibition of HCV JFH-1 envelope glycoprotein E2 interaction to cell surface protein CD81 in human Huh 7.5.1 cells after 2 days by firefly luciferase based luminescene assay; set-up: species or system Hepatitis C virus JFH-1
# Hepatitis C virus [3] = experiment: Inhibition of HCV 1b con1 envelope glycoprotein E2 interaction to cell surface protein CD81 in human Huh 7.5.1 cells after 2 days by firefly luciferase based luminescene assay; assay type: organism-based, Hepacivirus hominis; conditions: Con1, Huh-7.5.1, 48 h
# Hepatitis C virus [4] = experiment: Antiviral activity against HCV JFH-1 infected in human Huh 7.5.1 cells after 2 days by firefly luciferase reporter gene assay; assay type: functional, organism-based, Hepacivirus hominis; conditions: JFH-1, Huh-7.5.1, 48 h
# [5] = Cytotoxicity against human Huh7.5.1 cells at 1000 ug/ml after 48 hrs by WST-1 assay; assay type: cell-based
# Hepacivirus hominis = experiment: Inhibition of HCV envelope glycoprotein E2 interaction to human cell surface protein CD81
# Hepatitis C virus [6] = experiment: Antiviral activity against HCV at 50 uM; assay type: functional, Hepacivirus hominis
Molecule,half-life at 20 µM [1] [h],pEC50 [2],pEC50 (Hepatitis C virus [3]),pEC50 (Hepatitis C virus [4]),INH (Hepacivirus hominis) [µM],Activity [5],inhibition at 50 µM (Hepatitis C virus [6]) [%]
CC[C@H](C)[C@@H]1NC(=O)[C@H](CC(N)=O)NC(=O)[C@H](CO)NC(=O)[C@](C)(NC(=O)[C@H](CO)NC(=O)[C@@H]2CCCN2C(C)=O)CCCCCC/C=C\CCC[C@](C)(C(=O)N[C@@H](Cc2ccccc2)C(=O)N[C@@H](CCCCN)C(=O)N[C@@H](CCC(=O)O)C(=O)N[C@@H](CC(=O)O)C(N)=O)NC(=O)[C@H](CC(N)=O)NC(=O)[C@H](CO)NC(=O)[C@H]([C@@H](C)CC)NC1=O (Ac-PS[R8]SNIISN[R5]FKED-NH2; staple (Z) 3-10),> 3.33,4.77,4.46,4.41,–,Non-toxic,–
CC[C@H](C)[C@H](NC(=O)[C@H](CC(N)=O)NC(=O)[C@H](CO)NC(=O)CNC(=O)[C@H](CO)NC(=O)[C@@H]1CCCN1C(C)=O)C(=O)N[C@H](C(=O)N[C@@]1(C)CCC/C=C\CCC[C@@](C)(C(=O)N[C@@H](CCC(=O)O)C(=O)N[C@@H](CC(=O)O)C(N)=O)NC(=O)[C@H](Cc2ccccc2)NC(=O)[C@H](CC(C)C)NC(=O)[C@H](CC(N)=O)NC1=O)[C@@H](C)CC (Ac-PSGSNII[S5]NLF[S5]ED-NH2; staple (Z) 8-12),> 3.33,3.50,3.55,3.74,–,–,–
CCN(CCN(CC)C(=O)c1nc[nH]c1C(=O)N[C@@H](CC(C)C)C(=O)OCc1ccccc1)C(=O)c1nc[nH]c1C(=O)N[C@@H](CC(C)C)C(=O)OCc1ccccc1,–,–,–,–,38,–,–
O=C(OCc1ccccc1)c1ccccc1O [BENZYL SALICYLATE],–,–,–,–,–,–,25
CC[C@H](C)[C@@H]1NC(=O)[C@H]([C@@H](C)CC)NC(=O)[C@@](C)(NC(=O)[C@H](CO)NC(=O)CNC(=O)[C@H](CO)NC(=O)[C@@H]2CCCN2C(C)=O)CCCCCC/C=C/CCC[C@@](C)(C(=O)N[C@@H](CCC(=O)O)C(=O)N[C@@H](CC(=O)O)C(N)=O)NC(=O)[C@H](Cc2ccccc2)NC(=O)[C@H](CC(C)C)NC(=O)[C@H](CC(N)=O)NC(=O)[C@H](CO)NC1=O (Ac-PSGS[S8]IISNLF[S5]ED-NH2; staple (E) 5-12),> 3.33,4.11,3.51,3.45,–,–,–
CC[C@H](C)[C@@H]1NC(=O)[C@H](CC(N)=O)NC(=O)[C@@](C)(NC(=O)CNC(=O)[C@H](CO)NC(=O)[C@@H]2CCCN2C(C)=O)CCC/C=C\CCC[C@@](C)(C(=O)N[C@@H](CC(N)=O)C(=O)N[C@@H](CC(C)C)C(=O)N[C@@H](Cc2ccccc2)C(=O)N[C@@H](CCCCN)C(=O)N[C@@H](CCC(=O)O)C(=O)N[C@@H](CC(=O)O)C(N)=O)NC(=O)[C@H]([C@@H](C)CC)NC1=O (Ac-PSG[S5]NII[S5]NLFKED-NH2; staple (Z) 4-8),> 3.33,4.68,3.79,4.40,–,–,–

# Second part, led by results:
half-life at 20 µM [1] [h],pEC50 [2],pEC50 (Hepatitis C virus [3]),pEC50 (Hepatitis C virus [4]),INH (Hepacivirus hominis) [µM],Molecule,Activity [5],inhibition at 50 µM (Hepatitis C virus [6]) [%]
–,–,–,–,53,CCN(CCN(CC)C(=O)c1nc[nH]c1C(=O)N[C@H](C(=O)OCc1ccccc1)C(C)C)C(=O)c1nc[nH]c1C(=O)N[C@H](C(=O)OCc1ccccc1)C(C)C,–,–
0.167,3.49,3.49,3.61,–,Ac-PSGSNIISNLFKED-NH2,Non-toxic,–
> 3.33,3.70,3.50,3.62,–,CC[C@H](C)[C@@H]1NC(=O)[C@@](C)(NC(=O)[C@H](CC(N)=O)NC(=O)[C@H](CO)NC(=O)CNC(=O)[C@H](CO)NC(=O)[C@@H]2CCCN2C(C)=O)CCC/C=C\CCC[C@@](C)(C(=O)N[C@@H](Cc2ccccc2)C(=O)N[C@@H](CCCCN)C(=O)N[C@@H](CCC(=O)O)C(=O)N[C@@H](CC(=O)O)C(N)=O)NC(=O)[C@H](CC(N)=O)NC(=O)[C@H](CO)NC1=O (Ac-PSGSN[S5]ISN[S5]FKED-NH2; staple (Z) 6-10),–,–
